Assay results taken from patent US9895352B2, “Indolinone compounds and uses thereof” (Oncternal Therapeutics, Inc., priority 2014, dated 2018).
Like-named read-outs stand apart in the source and are kept apart here.

Legend:
in vitro [1] = conditions: rat, liver microsomes
[2] = not given; remark: listed apart in the source
[3] = not given; remark: listed apart in the source
[4] = not given; remark: listed apart in the source
in vitro [5] = conditions: mouse
[6] = Half-life in dog hepatocytes; format: in vitro ADME; conditions: for half-life: read-out: Half life of cmpds
Experimental: (§1) In another study, metabolism of compounds in hepatocytes from various species was examined. Hepatocytes were contacted with a compound, and the half-life of the compound was determined.

[7] = Half-life in rat hepatocytes; format: in vitro ADME; conditions: for half-life: read-out: Half life of cmpds
Experimental: as §1

[8] = Half-life in mouse hepatocytes; format: in vitro ADME; conditions: read-out: Half life of cmpds
Experimental: as §1

[9] = Half-life in human hepatocytes; format: in vitro ADME; conditions: read-out: Half life of cmpds
Experimental: as §1

[10] = system: SKES cells (Ewing Sarcoma cell line); experiment: CCK-8 tetrazolium tumor cell growth inhibition, SKES; format: cell-based; conditions: Homo sapiens
Experimental: A modified tetrazolium salt assay using the CCK-8 kit (Sigma-Aldrich; St Louis, Mo.) was used to measure the inhibition of human tumor cell growth. Tumor cells (5000-7500 per well) were added to 96 well plates and allowed to attach for 4-5 hours. Compounds were serially diluted and added in triplicate at a concentration of 0.02 to 5 μM. DMSO was included as a vehicle control. Cells were incubated in the presence of compound for 3 days. After incubation CCK-8 reagent was added to each well and incubated for 2-4 hours. Viable cells were quantitated spectrophotometrically at a wavelength of 450 nm. Percent viability of each sample was calculated from the A450 values as follows: % viability=(A450 nm sample/A450 nm DMSO-treated cells×100). […] IC50 activities of particular compounds were determined using SKES cells (Ewing Sarcoma cell line).

[11] = Metabolic stability, half-life and clearance in human hepatocytes; format: in vitro ADME; conditions: for % remaining / half-life: Human hepatocytes; for CLhep: human hepatocytes, hepatic clearance where blood flow = 20 mL/min/kg
Experimental: (§2) Half-life and clearance rates for certain compounds were assayed with human liver microsomes and human hepatocytes. […] At each time point (0, 5, 15, 30, 60, 90 min) the reactions were stopped, vortexed and centrifuged. Supernatents were frozen until LC/MS/MS analysis. The results for human liver microsomes and human hepactocytes are summarized in TABLE 9, and TABLE 10, respectively. Certain compounds were assayed with human liver microsomes (HLM) and human hepatocytes, and metabolites were detected. Briefly, metabolic stability was tested at one TA concentration (e.g., 1 μM) in duplicate. […] Incubations were saved and used for metabolite identification using LC/MS/MS. […] The slope of the linear regression from log percentage remaining versus incubation time relationships (−k) was determined by linear regression fitting. From the individual log percentage remaining time profiles, the mean half-life and intrinsic clearance were reported. UHPLC-HRMS or UHPLC-MS/MS experiment was performed on the authentic test articles to check for possible common fragment ions. […] The metabolites were summarized based on their mass spectrometry peak areas.

[12] = Metabolic stability, half-life and clearance in human liver microsomes; format: in vitro ADME; conditions: for CLhep: hepatic clearance where blood flow = 20 mL/min/kg
Experimental: as §2

[13] = human liver microsome, no cofactor, 60 min
[14] = dog liver microsome, no cofactor, 60 min
[15] = rat liver microsome, no cofactor, 60 min
[16] = mouse liver microsome, no cofactor, 60 min
[17] = 72 h, SKES cells, 3 days with compound, CCK-8 (TABLE 3)

O=C(CC1(O)C(=O)Nc2c(Cl)ccc(Cl)c21)c1ccc(C2CC2)c(F)c1 (single isomer, unassigned) [Cmpd 36, 4,7-Dichloro-3-(2-(4-cyclopropyl-3-fluorophenyl)-2-oxoethyl)-3-hydroxyindolin-2-one]
Remaining (NCF = 60 min) [13]: 104.0%

O=C(CC1(O)C(=O)Nc2c(Cl)ccc(Cl)c21)c1ccc(C2CC2)cc1F (single isomer, unassigned) [Cmpd 39, 4,7-Dichloro-3-(2-(4-cyclopropyl-2-fluorophenyl)-2-oxoethyl)-3-hydroxyindolin-2-one]
half-life (in vitro [1]): 3 min
Remaining (NCF = 60 min) [13]: 100.0%

C[C@]12CC[C@H]3[C@@H](CCC4=CC(=O)CC[C@@]43C)[C@@H]1CC[C@@H]2O [Testosterone, reference compound]
Remaining (NCF = 60 min) [13]: 88.1%
Remaining (NCF = 60 min) [2, 14]: 91.0%
Remaining (NCF = 60 min) [3, 15]: 87.3%
Remaining (NCF = 60 min) [4, 16]: 83.6%
half-life (in vitro [5]; microsomes): 3.3 min

O=C(O)Cc1ccccc1Nc1c(Cl)cccc1Cl [Diclofenac, reference compound]
Remaining (NCF = 60 min) (human, microsomes, 1 h): 77.8%
Remaining (NCF = 60 min) ([2]; dog, microsomes, 1 h): 89.6%
Remaining (NCF = 60 min) ([3]; rat, microsomes, 1 h): 94.1%
Remaining (NCF = 60 min) ([4]; mouse, microsomes, 1 h): 88.1%
half-life (in vitro [5]; microsomes): 39.2 min

O=C(CC1(O)C(=O)Nc2c(Cl)ccc(Cl)c21)c1ccc(C2CC2)cc1F (single isomer, unassigned) [Cmpd 38, 4,7-Dichloro-3-(2-(4-cyclopropyl-2-fluorophenyl)-2-oxoethyl)-3-hydroxyindolin-2-one]
Remaining (NCF = 60 min) [13]: 99.5%

O=c1ccc2ccc(O)cc2o1 [7-Hydroxycoumarin, reference compound]
half-life [6]: 9.38 min
Half life of cmpds [7]: 12.41 min
half-life [8]: 15.8 min
half-life [9]: 20.8 min

COc1ccc(C(=O)CC2(O)C(=O)Nc3c(Cl)ccc(Cl)c32)cc1 (single isomer, unassigned) [Cmpd 3, 4,7-Dichloro-3-hydroxy-3-[2-(4-methoxyphenyl-2-oxoethyl)]-1,3-dihydroindol-2-one]
Remaining (NCF = 60 min) [13]: 112.6%
Remaining (NCF = 60 min) [2, 14]: 100.1%
Remaining (NCF = 60 min) [3, 15]: 92.6%
Remaining (NCF = 60 min) [4, 16]: 97.5%

CCOc1ccc2ccc(=O)oc2c1 [7-Ethoxycoumarin, reference compound]
Half life of cmpds [6]: 9.14 min
half-life [7]: 38.2 min
half-life [8]: 37.9 min
half-life [9]: 45.3 min

COC1CCC(C(=O)CC2(O)C(=O)Nc3c(Cl)ccc(Cl)c32)CC1 (racemic) [Cmpd 23, 4,7-Dichloro-3-hydroxy-3-(2-(4-methoxycyclohexyl)-2-oxoethyl)indolin-2-one]
IC50 [10, 17]: > 5 µM
IC50 ([10]; SKES, ES, EWS-FLI1 Type 2): > 5 µM

CNc1ccc(C(=O)CC2(O)C(=O)Nc3c(Cl)ccc(Cl)c32)cc1 (racemic) [Cmpd 7, 4,7-dichloro-3-hydroxy-3-[2-[4-(methylamino)phenyl]-2-oxoethyl]-1H-indol-2-one]
% remaining [11]: 100%
half-life [11]: > 240 min
CLhep [11]: <8.7 mL/min/kg
% remaining [12]: 49%
half-life [12]: > 45 min
CLhep [12]: ~11.54 mL/min/kg

O=C(CC1(O)C(=O)Nc2c(Cl)ccc(Cl)c21)c1ccc(C2CC2)c(F)c1 (single isomer, unassigned) [Cmpd 37, 4,7-Dichloro-3-(2-(4-cyclopropyl-3-fluorophenyl)-2-oxoethyl)-3-hydroxyindolin-2-one]
half-life (in vitro [1]): 3.5 min
Remaining (NCF = 60 min) [13]: 103.4%
half-life (in vitro [5]; liver microsomes): 20.7 min

O=C(CC1(O)C(=O)Nc2c(Cl)ccc(Cl)c21)c1ccncc1 (racemic) [Cmpd 30, 4,7-dichloro-3-hydroxy-3-(2-oxo-2-(pyridin-4-yl)ethyl)indolin-2-one]
IC50 [10, 17]: > 5 µM
IC50 ([10]; SKES, ES, EWS-FLI1 Type 2): > 5 µM

O=C(CC1(O)C(=O)Nc2c(Cl)ccc(Cl)c21)c1ccc(O)cc1 (racemic) [Cmpd 34, 4,7-dichloro-3-hydroxy-3-(2-(4-hydroxyphenyl)-2-oxoethyl)indolin-2-one]
IC50 [10, 17]: > 5 µM
IC50 ([10]; SKES, ES, EWS-FLI1 Type 2): > 5 µM

COc1ccc(C(=O)CC2(O)C(=O)Nc3c(Cl)ccc(Cl)c32)cc1 (racemic) [Cmpd 1, 4,7-Dichloro-3-hydroxy-3-[2-(4-methoxyphenyl-2-oxoethyl)]-1,3-dihydroindol-2-one]
% remaining [11]: 48%
half-life [11]: 226 min
CLhep [11]: 8.7 mL/min/kg
half-life [6]: 16.7 min
half-life [7]: 14.2 min
half-life [8]: 30.9 min
half-life [9]: 45.5 min
IC50 [10, 17]: < 5 µM
% remaining [12]: 5%
half-life [12]: 10.3 min
CLhep [12]: 17.28 mL/min/kg

NS(=O)(=O)c1ccc(C(=O)CC2(O)C(=O)Nc3c(Cl)ccc(Cl)c32)cc1 (racemic) [Cmpd 20, 4-(2-(4,7-Dichloro-3-hydroxy-2-oxoindolin-3-yl)acetyl)benzenesulfonamide]
IC50 [10, 17]: > 5 µM
IC50 ([10]; SKES, ES, EWS-FLI1 Type 2): > 5 µM

NC(=O)c1ccc(C(=O)CC2(O)C(=O)Nc3c(Cl)ccc(Cl)c32)cc1 (racemic) [Cmpd 33, 4-(2-(4,7-dichloro-3-hydroxy-2-oxoindolin-3-yl)acetyl)benzamide]
IC50 [10, 17]: > 5 µM
IC50 ([10]; SKES, ES, EWS-FLI1 Type 2): > 5 µM

CC(C)c1ccc(C(=O)CC2(O)C(=O)Nc3c(Cl)ccc(Cl)c32)cc1 (racemic) [Cmpd 9, 4,7-Dichloro-3-hydroxy-3-(2-(4-isopropylphenyl)-2-oxoethyl)indolin-2-one]
IC50 [10, 17]: > 5 µM
IC50 ([10]; SKES, ES, EWS-FLI1 Type 2): > 5 µM

O=C(CC1(O)C(=O)Nc2c(Cl)ccc(Cl)c21)c1ccc(N2CCOCC2)cc1 (racemic) [Cmpd 29, 4,7-dichloro-3-hydroxy-3-(2-(4-moprholinophenyl)-2-oxoethyl)indolin-2-one]
IC50 [10, 17]: > 5 µM
IC50 ([10]; SKES, ES, EWS-FLI1 Type 2): > 5 µM

CS(=O)(=O)c1ccc(C(=O)CC2(O)C(=O)Nc3c(Cl)ccc(Cl)c32)cc1 (racemic) [Cmpd 4, 4,7-Dichloro-3-hydroxy-3-(2-(4-(methylsulfonyl)phenyl)-2-oxoethyl)indolin-2-one]
IC50 [10, 17]: > 5 µM
IC50 ([10]; SKES, ES, EWS-FLI1 Type 2): > 5 µM

O=C(CC1(O)C(=O)Nc2c(Cl)ccc(Cl)c21)c1ccc(C2CC2)cc1 (single isomer, unassigned) [Cmpd 13, 4,7-Dichloro-3-(2-(4-cyclopropylphenyl)-2-oxoethyl)-3-hydroxyindolin-2-one]
Remaining (NCF = 60 min) [13]: 105.1%
Remaining (NCF = 60 min) [2, 14]: 98.4%
Remaining (NCF = 60 min) [3, 15]: 97.0%
Remaining (NCF = 60 min) [4, 16]: 85.6%
IC50 [10, 17]: > 5 µM
IC50 ([10]; SKES, ES, EWS-FLI1 Type 2): > 5 µM
